Values joined by “and” are separate entries in the source; they are usually repeats but may differ in a detail not shown here. Equal entries are not always repeated.
Assays:
C2C12 cells = experiment: Cell proliferation assay (AlamarBlue); type: cell-based; conditions: 24 h after 2% HS addition, control 100±7.3%
Procedure: C2C12 cells (American Type Culture Collection, ATCC, Manassas, VA, USA) were cultured in DMEM supplemented with 10% FBS and 1% penicillin-streptomycin. To induce myogenic differentiation, 70% confluence C2C12 cells were culture in DMEM containing 2% HS (horse serum). Cells were maintained in a humidified chamber at 37° C., in 95% air and 5% CO2. Media was replaced with fresh every 48h.
C2C12 cells were plated in 96-well plates (Corning, Cultek, Spain) (12.500 cells/well). Cell proliferation was measured using AlamarBlue assay according to the manufacturer's instructions, at 24 and 48 h of myogenic differentiation.

C2C12 [1] = experiment: Nucleotide concentration by HPLC during C2C12 differentiation; type: cell-based
Procedure: Supernatant and cell lysate are collected every day. Cells were lysated with a homemade buffer (1 mM phenylmethylsulfonyl fluoride, 1 mM protease inhibitor cocktail, 1 mM sodium orthovanadate, 1 mM sodium fluoride and 1 mM β-glicerophospate) and supernatant was used directly. A heat shock step was done at 98° C. for 2 min, and to avoid adenosine degradation 1 μM EHNA was added at the time of heating. All samples were centrifuged at 13000 g for 10 min at 4° C. and supernatants were collected and stored at −80° C. until use. Inosine, adenosine, AMP, ADP and ATP concentrations were determined with high performance liquid chromatography (HPLC) using a liquid chromatograph with a reversed phase column (Agilent 1100 Series Liquid Chromatography) and an UV detector set at 254 nm. Buffer composed of 0.1 mol/L KH2PO4 (pH 7.5) and 18% acetonitrile was run at 1.5 ml/min for 20 min. Compounds were identified and quantified by their retention times and peak areas of known standards, calibrated by spectrophotometry. […] The results have been corrected and expressed as mean±SEM. All results were calculated as a percentage of controls without differentiation state.

C2C12 [2] = experiment: Western blot of myogenesis markers during differentiation; type: cell-based
Procedure: (§1) Cells were lysed with RIPA buffer and protein concentration was determined by BCA. […] Variations in intensity were expressed as % of basal (day 0) and expressed as mean±SEM. All results were calculated as a percentage of non-differentiated controls to minimize the intrinsic variation among different experiments.

C2C12 [3] = experiment: Western blot of adenosine receptors, P2X7 and Panx-1 during differentiation; type: cell-based
Procedure: as §1
The expression of adenosine receptors, P2X7 receptor and Panx-1 channel was analyzed during myoblast differentiation.

C2C12 [4] = experiment: cAMP concentration (ELISA); type: cell-based; conditions: myoblast, 1 μM, 5 minutes; control 0.58±0.13
Procedure: CAMP concentration was measured using the colorimetric cAMP ELISA kit following manufacture protocol for acetylated cell lysates (Cell Biolabs, San Diego, USA). Absorbance was measured at 450 nm using a microplate reader Tecan Spark 20M.
The CAMP signaling cascade has been linked to a delay in the onset of age-related muscle loss.

C2C12 [5] = experiment: Western blot of PKA isoforms, pCREB, EPAC1/2; type: cell-based
Procedure: as §1
To study the CAMP signaling pathway, we analyzed the expression of PKA on its three catalytic isoforms PKAα, PKAβ and PKAγ as well as EPAC1/2. […] Tenofovir reduced its phosphorylation (154±9% tenofovir vs 247±30% control at day 4, p<0.05, FIG. 3B).

C2C12 [6] = experiment: Western blot of phosphorylated AMPK; type: cell-based; conditions: 1 μM, day 4, vs basal
Procedure: as §1
We next studied if these changes in AMP/ATP ratio had any effect in AMPK activation.

C2C12 [7] = experiment: AMPK phosphorylation assay kit (short time points); type: cell-based; conditions: myoblast, 1 μM, 10 min after switching to 2% HS; control 1.97±0.17
Procedure: Assay was performed with the AMPK phosphorilation assay kit (Abnova Corporation, Jhouzih St, Taiwan) as manufactor instructions and pAMPK was measured at λex/em 530/585 nm and 360/450 nm for total protein with Tecan Infinite.

[8] = mice, tenofovir 75 mg/Kg/day; cited from earlier work
C2C12 myoblast cell line = experiment: Western blot of C2C12 under pro-inflammatory conditions with/without dipyridamole; conditions: for PAX7 expression (vs 100% basal): IL-6 2.5 μg/ml, INFγ 1 μg/ml or LPS 10 μg/ml ± dipyridamole 1 μM, control 64.7±5%; for PAX7 expression (vs 100% basal) / AMPK activation / CREB activation / MHC expression (vs 100% basal) / PKAα expression: day 4; for A2BR expression / AMPK activation / CREB activation / MHC expression (vs 100% basal): cytokine/LPS ± dipyridamole 1 μM; for AMPK activation: control 222.7±23.9%; for CREB activation: control 353.7±45.15%; for MHC expression (vs 100% basal): control 757.6±85.7%; for PKAα expression: control 213.9±21.6%
Procedure: Western blot was performed as described above.
Protein concentration was determined by BCA. 4 μg for cells and 40-50 μg for tissue samples of protein was subjected to 6-15% SDS-PAGE and transferred to a nitrocellulose membrane. Membranes were blocked with 3% BSA in Tris-buffered saline containing 0.1% Tween-20 (TBS-T). After that, the membranes were incubated overnight at 4° C. with the primary antibodies for A2A, A2B, MHC (Thermo Fisher Scientific, Waltham, USA), AMPK, pAMPK (Thr172), p21, p16 (Cell signaling, Danvers, EEUU) (1:1000 each) and Pax-7 (Developmental Studies Hybridoma Bank, Houston, EEUU) (1:500 each).

C2C12 myobundles = experiment: C2C12 3D myobundle with IL-6 ± dipyridamole; type: cell-based; conditions: IL-6 2.5 μg/ml ± dipyridamole 1 μM, 14 days; Sham 890±39
Text: C2C12 myobundles were fabricated following the protocol described by Bursac group (see references in ref. 44). Briefly, molds of polydimethylsiloxane (PDMS) designed for 12-well plates were created from Teflon masters with semicylindrical wells. These molds were sterilized, coated with 0.2% (w/v) Pluronic F-127 (Invitrogen) to prevent tissue adhesion, and paired with laser-cut Cerex frames (9×9 mm^2, 1-mm-wide rim) for myobundle attachment. The frames served as an anchor and guide during hydrogel compaction, ensuring uniaxial cell alignment. C2C12 cells were encapsulated in a hydrogel solution, including bovine fibrinogen (Sigma-Aldrich), matrigel (Corning), bovine thrombin (Sigma-Aldrich), and growth medium as concentration of bursac group indicates Referencias. The cell/hydrogel mixture was polymerized in the PDMS molds, and myobundles were cultured in a humidified chamber at 37° C., in 95% air and 5% CO2. After 4 days, the frames with myobundles were suspended in DM with treatments. DM and treatments are replaced every two days. GM and DM media contained 6-aminocaproic acid to reduce fibrinolysis. […] After the 14 days of treatment a bright-field photograph was taken to analyze the thickness of the fiber at its midpoint, and subsequently, they were embedded in OCT medium. […]

In the case of `C[C@H](Cn1cnc2c(N)ncnc21)OCP(=O)(O)O` [tenofovir], the “Proliferation compared to control” value (C2C12 cells; 1 μM) is reported as 63.3±5%, the “Proliferation compared to control” value (C2C12 cells; 10 μM) is reported as 62.8±6.4% and the “Intracellular ATP” value (C2C12 [1]; 1 μM each, day 1, control 4.93±0.02) is reported as 11.56 ± 0.26 nM and 11.74 ± 0.08 nM. The “Intracellular AMP/ATP ratio” value (C2C12 [1]; 1 μM each, day 3, control 1.88±0.12) was 0.62±0.03, the “Extracellular ATP” value (C2C12 [1]; 1 μM each, day 4, control 14.7±0.5) was 10.67 ± 0.28 nM and the Intracellular adenosine (C2C12 [1]; 1 μM, day 4, control 10.87±0.73) was “did not change”. For the same molecule, the Intracellular inosine (C2C12 [1]; 1 μM, day 4, control 11.07±0.54) was “did not modulate”, the “Intracellular AMP” value (C2C12 [1]; 1 μM, day 4, control 12.10±0.73) was 6.33 ± 0.35 nM and the Extracellular adenosine (C2C12 [1]; 1 μM, day 4 of differentiation, control 11.6±0.81) was 6.65 ± 0.54 nM. The “MHC protein expression (% of basal)” value (C2C12 [2]; 1 μM each, day 1) was 1429±379% and 1153±131%, the “PAX7 protein expression (% of basal)” value (C2C12 [2]; 1 μM, day 1, control 315±58%) was 101±23% and the “MyoD protein expression (% of basal)” value (C2C12 [2]; 1 μM, day 2, control 182±8%) was 389±33%. The “Myf5 protein expression (% of basal)” value (C2C12 [2]; 1 μM, first 2 days of differentiation) was 142±23%, the “Adenosine A2B receptor protein expression (% of basal)” value (C2C12 [3]; 1 μM each, day 4) was 553±47% and the “A3 receptor protein expression” value (C2C12 [3]; 1 μM, compared to control) was “did not change”. The “P2X7 protein expression (% of basal)” value (C2C12 [3]; 1 μM, day 4) was 89±19%, the cAMP levels (C2C12 [4]) was 0.24±0.07 and the “PKAα protein expression (% of basal)” value (C2C12 [5]; 1 μM each, day 4, control 292±65%) was 215±90% and 215.8±94.2%. For the same molecule, the “pCREB (% of basal)” value (C2C12 [5]; 1 μM, day 4, control 247±30%) was 154±9%, the EPAC2 protein expression (C2C12 [5]; 1 μM, within differentiation) was “maintained the expression similar to basal levels” and the “pAMPK (Western blot)” value (C2C12 [6]) was 1.15±0.05. The AMPK activation (C2C12 [7]) was 1.02±0.19 and the Body weight lost [8] was ~10%.

B1: INFγ: pro-inflammatory cytokine used at 1 μg/ml on C2C12 (protein, UniProt P01580 23-155, looked up)
Interferon gamma: HGTVIESLESLNNYFNSSGIDVEEKSLFLDIWRNWQKDGDMKILQSQIISFYLRLFEVLKDNQAISNNISVIESHLITTFFSNSKAKKDAFMSIAKFEVNNPQVQRQAFNELIRVVHQLLPESSLRKRKRSRC
In the case of B1, the “PAX7 expression (vs 100% basal)” value (C2C12 myoblast cell line) is reported as 114±11%, the A2BR expression (C2C12 myoblast cell line; 24 h, control 112.9±4.7%) is reported as 69.3±1.9% and the A2BR expression (C2C12 myoblast cell line; 4 days, control 172.7±12.6%) is reported as 66.03±20.3%. The AMPK activation (C2C12 myoblast cell line) was 80.4±6.1%, the CREB activation (C2C12 myoblast cell line) was 176.7±27.8% and the “MHC expression (vs 100% basal)” value (C2C12 myoblast cell line) was 123.1±20.3%. It also gave a PKAα expression (C2C12 myoblast cell line) of 101.7±3.7%.

B2: IL-6: pro-inflammatory cytokine used at 2.5 μg/ml on C2C12 (protein, UniProt P08505 25-211, looked up)
Interleukin-6: FPTSQVRRGDFTEDTTPNRPVYTTSQVGGLITHVLWEIVEMRKELCNGNSDCMNNDDALAENNLKLPEIQRNDGCYQTGYNQEICLLKISSGLLEYHSYLEYMKNNLKDNKKDKARVLQRDTETLIHIFNQEVKDLHKIVLPTPISNALLTDKLESQKEWLRTKTIQFILKSLEEFLKVTLRSTRQT
In the case of B2, the Myobundle thickness (C2C12 myobundles) is reported as 616.3±22.9 μm, the “PAX7 expression (vs 100% basal)” value (C2C12 myoblast cell line) is reported as 121±8% and the A2BR expression (C2C12 myoblast cell line; 24 h, control 112.9±4.7%) is reported as 75.8±2.2%. For the same molecule, the A2BR expression (C2C12 myoblast cell line; 4 days, control 172.7±12.6%) was 67.6±3%, the AMPK activation (C2C12 myoblast cell line) was 80.9±5.8% and the CREB activation (C2C12 myoblast cell line) was 163.4±19.26%. The “MHC expression (vs 100% basal)” value (C2C12 myoblast cell line) was 127.7±15.8% and the PKAα expression (C2C12 myoblast cell line) was 107±5.8%.

— patent publication US20260263468A1 (Fundación Instituto de Investigación Sanitaria Fundación …, priority 2023, published 2026)
